The test concerns the target T1, SIRT1 (Homo sapiens, UniProt Q96EB6).
T1 sequence (Q96EB6 1-747): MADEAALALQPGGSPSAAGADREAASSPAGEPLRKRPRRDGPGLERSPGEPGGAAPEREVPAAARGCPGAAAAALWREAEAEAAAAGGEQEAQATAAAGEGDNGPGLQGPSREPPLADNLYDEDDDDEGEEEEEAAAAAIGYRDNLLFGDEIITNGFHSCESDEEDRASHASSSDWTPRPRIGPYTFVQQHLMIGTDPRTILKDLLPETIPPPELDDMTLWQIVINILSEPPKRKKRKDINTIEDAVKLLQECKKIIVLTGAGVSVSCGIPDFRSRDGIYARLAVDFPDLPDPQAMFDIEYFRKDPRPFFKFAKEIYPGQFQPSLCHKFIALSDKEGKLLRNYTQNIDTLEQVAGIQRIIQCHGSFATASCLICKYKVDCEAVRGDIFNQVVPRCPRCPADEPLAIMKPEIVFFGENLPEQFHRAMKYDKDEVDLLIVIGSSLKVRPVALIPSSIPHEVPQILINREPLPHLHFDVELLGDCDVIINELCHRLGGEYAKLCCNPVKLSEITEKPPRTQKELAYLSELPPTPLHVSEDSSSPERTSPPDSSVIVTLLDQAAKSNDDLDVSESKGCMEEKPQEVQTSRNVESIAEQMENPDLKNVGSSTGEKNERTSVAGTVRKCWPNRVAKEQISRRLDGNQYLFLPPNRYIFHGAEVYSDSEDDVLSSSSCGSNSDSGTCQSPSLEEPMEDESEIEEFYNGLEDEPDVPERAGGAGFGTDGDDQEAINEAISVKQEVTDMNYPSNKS
The test is described as follows: Mass spectrometry based assay to identify modulators of SIRT1 activity (deacetylation of p53-based acetylated peptide substrate). In kind it is biochemical. The conditions noted are these: for Emax: 25 min, SIRT1 activation, read-out: % FOLD ACT. (percent maximum fold activation). The essentials:
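His-tagged human SIRT1 (10 nM, E. coli) incubated 25 min at 25 °C with […] p53-derived acetylated 5TMR peptide and 120 μM βNAD+ in pH 8 Tris-acetate buffer, then formic acid-stopped. Mass spectrometry quantifies acetylated vs deacetylated peptide; nicotinamide and DMSO controls.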

In the case of `O=C(Nc1ccncc1)N1CCOc2c(N3CCCC3)nc(-c3cccc(F)c3)nc21` [Compound 737], the EC1.5 (concentration giving 1.5-fold activation) is above 25 µM and the Emax was at most 200%.
The corresponding values for `O=C(Nc1ccncc1)N1CCOc2c(N3CCNCC3)nc(-c3cccc(F)c3)nc21` [Compound 738, 2-(3-fluorophenyl)-4-(piperazin-1-yl)-N-(pyridin-4-yl)-6H-pyrimido[5,4-b][1,4]oxazine-8(7H)-carboxamide] are above 25 µM and at most 200%.
The corresponding values for `Cc1cc(NC(=O)N2CCOc3c(N4CCOCC4)nc(-c4cccc(F)c4)nc32)cc(C)n1` [Compound 739] are 1 to 25 µM and at most 200%.
The like results for `Cc1csc(NC(=O)N2CCOc3ncc(-c4cccc(C(F)(F)F)c4)nc32)n1` [Compound 740, N-(4-methylthiazol-2-yl)-6-(3-(trifluoromethyl)phenyl)-2H-pyrazino[2,3-b][1,4]oxazine-4(3H)-carboxamide] were, in that order, above 25 µM and at most 200%.
Take `Cc1cc(C)nc(NC(=O)N2CCOc3ncc(-c4cccc(C(F)(F)F)c4)nc32)c1` [Compound 741]: the EC1.5 (concentration giving 1.5-fold activation) lay in the range of 1 to 25 µM and the Emax is above 200%.
The like results for `O=C(Nc1cccc(OCC(O)CO)n1)N1CCOc2ncc(-c3cccc(C(F)(F)F)c3)nc21` (stereo not shown) [Compound 742] were, in that order, below 1 µM and above 200%.
As to `O=C(Nc1ccncc1)N1CCC(F)(F)c2ccc(-c3cccc(C(F)(F)F)c3)nc21` [Compound 743, 4,4-difluoro-N-(pyridin-4-yl)-7-(3-(trifluoromethyl)phenyl)-3,4-dihydro-1,8-naphthyridine-1(2H)-carboxamide], the EC1.5 (concentration giving 1.5-fold activation) lay in the range of 1 to 25 µM and the Emax was above 200%.
The like results for `Cc1cnccc1NC(=O)N1CCC(F)(F)c2ccc(-c3cccc(C(F)(F)F)c3)nc21` [Compound 744] were, in that order, above 25 µM and at most 200%.
The corresponding values for `O=C(Nc1ccncc1F)N1CCC(F)(F)c2ccc(-c3cccc(C(F)(F)F)c3)nc21` [Compound 746] are 1 to 25 µM and at most 200%.
The corresponding values for `O=C1CCCN(C(=O)Nc2cccnc2)c2nc(-c3cccc(Cl)c3)ccc21` [Compound 747, 2-(3-chlorophenyl)-5-oxo-N-(pyridin-3-yl)-7,8-dihydro-5H-pyrido[2,3-b]azepine-9(6H)-carboxamide] are 1 to 25 µM and above 200%.
`O=C(Nc1ccnc(N2CCC2)c1)N1CCOc2ncc(-c3cccc(C(F)(F)F)c3)nc21` [Compound 748]: the EC1.5 (concentration giving 1.5-fold activation) was below 1 µM and the Emax is above 200%.
In the case of `O=C(Nc1ccncc1)N1CCOc2c(N3CCNCC3)nc(-c3cccc(F)c3)nc21` [Compound 751], the “% FOLD ACT. (percent maximum fold activation)” value is recorded as “B (Fold Activation≦200%)” and the EC1.5 (concentration giving 1.5-fold activation) is 1 to 25 µM.
Turning to `Cc1cc(NC(=O)N2CCOc3c(N4CCNCC4)nc(-c4cccc(F)c4)nc32)cc(C)n1` [Compound 752], the EC1.5 (concentration giving 1.5-fold activation) lay in the range of 1 to 25 µM and the Emax was above 200%.
With `O=C(Nc1cncnc1)N1CCC(F)(F)c2ccc(-c3cccc(C(F)(F)F)c3)nc21` [Compound 753], the EC1.5 (concentration giving 1.5-fold activation) lay in the range of 1 to 25 µM and the Emax is above 200%.
The like results for `O=C(Nc1ccccn1)N1CCCCc2ccc(-c3cccc(Cl)c3)nc21` [Compound 754] were, in that order, 1 to 25 µM and at most 200%.
For `O=C(Nc1ccncn1)N1CCCCc2ccc(-c3cccc(Cl)c3)nc21` [Compound 755], the EC1.5 (concentration giving 1.5-fold activation) fell in the range of 1 to 25 µM and the Emax was above 200%.
The like results for `O=C1CCCN(C(=O)Nc2ccncc2)c2nc(-c3cccc(Cl)c3)ccc21` [Compound 756] were, in that order, 1 to 25 µM and above 200%.
The like results for `CN(C)c1nc(-c2cccc(F)c2)nc2c1OCCN2C(=O)Nc1ccncn1` [Compound 757] were, in that order, above 25 µM and at most 200%.
The like results for `O=C(Nc1ccncn1)N1CCOc2c(N3CCOCC3)nc(-c3cccc(F)c3)nc21` [Compound 758] were, in that order, above 25 µM and at most 200%.
As to `O=C(Nc1ccncn1)N1CCOc2c(N3CCNCC3)nc(-c3cccc(F)c3)nc21` [Compound 759], the EC1.5 (concentration giving 1.5-fold activation) is 1 to 25 µM and the Emax is above 200%.
Regarding `CC1(C)CN(C(=O)Nc2ccccn2)c2nc(-c3cccc(F)c3)ccc2O1` [Compound 760], the EC1.5 (concentration giving 1.5-fold activation) fell in the range of 1 to 25 µM and the Emax was above 200%.
Turning to `O=C(Nc1ccccn1)N1CCCOc2ccc(-c3cccc(Cl)c3)nc21` [Compound 761], the EC1.5 (concentration giving 1.5-fold activation) fell in the range of 1 to 25 µM and the Emax was above 200%.
The like results for `O=C(Nc1ccc(F)cn1)N1CCCOc2ccc(-c3cccc(Cl)c3)nc21` [Compound 762] were, in that order, 1 to 25 µM and at most 200%.
The corresponding values for `Cc1ccnc(NC(=O)N2CCCOc3ccc(-c4cccc(Cl)c4)nc32)c1` [Compound 763] are 1 to 25 µM and above 200%.
The corresponding values for `CCN1C(=O)CCN(C(=O)Nc2ccccn2)c2nc(-c3cccc(Cl)c3)ccc21` [Compound 765, 7-(3-chlorophenyl)-1-ethyl-2-oxo-N-(pyridin-2-yl)-3,4-dihydro-1H-pyrido[2,3-b][1,4]diazepine-5(2H)-carboxamide] are above 25 µM and at most 200%.
`O=C1CCCN(C(=O)Nc2ccncc2F)c2nc(-c3cccc(Cl)c3)ccc21` [Compound 767]: the EC1.5 (concentration giving 1.5-fold activation) is 1 to 25 µM and the Emax was at most 200%.
For the molecule `O=C1CCCN(C(=O)Nc2ccccn2)c2nc(-c3cccc(Cl)c3)ccc21` [Compound 768], the EC1.5 (concentration giving 1.5-fold activation) is below 1 µM and the Emax is above 200%.
The corresponding values for `O=C(Nc1ccncc1F)N1CCCOc2ccc(-c3cccc(Cl)c3)nc21` [Compound 769] are 1 to 25 µM and above 200%.
With `O=C(Nc1ccncc1)N1CCCC(F)(F)c2ccc(-c3cccc(Cl)c3)nc21` [Compound 770], the EC1.5 (concentration giving 1.5-fold activation) was above 25 µM and the Emax was at most 200%.
The corresponding values for `O=C(Nc1cccnc1)N1CCCC(F)(F)c2ccc(-c3cccc(Cl)c3)nc21` [Compound 771] are above 25 µM and at most 200%.
For `Cc1cc(NC(=O)N2CCCC(F)(F)c3ccc(-c4cccc(Cl)c4)nc32)cc(C)n1` [Compound 772], the EC1.5 (concentration giving 1.5-fold activation) is 1 to 25 µM and the Emax was above 200%.
The corresponding values for `Cc1cc(NC(=O)N2CCCC(F)(F)c3ccc(-c4cccc(Cl)c4)nc32)ccn1` [Compound 773] are 1 to 25 µM and above 200%.
On to `CCN1C(=O)CCN(C(=O)Nc2ccncc2F)c2nc(-c3cccc(Cl)c3)ccc21` [Compound 774], for which the EC1.5 (concentration giving 1.5-fold activation) is above 25 µM and the Emax was at most 200%.
Consider `CCN1C(=O)CCN(C(=O)Nc2ccncn2)c2nc(-c3cccc(Cl)c3)ccc21` [Compound 775], for which the EC1.5 (concentration giving 1.5-fold activation) was above 25 µM and the Emax is at most 200%.
Take `CCN1C(=O)CCN(C(=O)Nc2cccc(C)n2)c2nc(-c3cccc(Cl)c3)ccc21` [Compound 776]: the EC1.5 (concentration giving 1.5-fold activation) was above 25 µM and the Emax is at most 200%.
The like results for `CCN1CCCN(C(=O)Nc2ccncc2)c2nc(-c3cccc(Cl)c3)ccc21` [Compound 777] were, in that order, 1 to 25 µM and above 200%.
The corresponding values for `O=C(Nc1ccccn1)N1CCCC(F)(F)c2ccc(-c3cccc(Cl)c3)nc21` [Compound 778] are above 25 µM and at most 200%.
As for `Cc1csc(NC(=O)N2CCCC(F)(F)c3ccc(-c4cccc(Cl)c4)nc32)n1` [Compound 779], the EC1.5 (concentration giving 1.5-fold activation) was above 25 µM and the Emax was at most 200%.
The like results for `Cc1cccc(NC(=O)N2CCCC(F)(F)c3ccc(-c4cccc(Cl)c4)nc32)n1` [Compound 780] were, in that order, above 25 µM and at most 200%.
Take `O=C(Nc1cccc(OC[C@H](O)CO)n1)N1CCCC(F)(F)c2ccc(-c3cccc(Cl)c3)nc21` [Compound 781]: the EC1.5 (concentration giving 1.5-fold activation) lay in the range of 1 to 25 µM and the Emax is above 200%.
As for `O=C(Nc1ccncc1F)N1CCCC(F)(F)c2ccc(-c3cccc(Cl)c3)nc21` [Compound 782], the EC1.5 (concentration giving 1.5-fold activation) was above 25 µM and the Emax was at most 200%.

For the origin of these results see US9556201B2, “Bicyclic pyridines and analogs as sirtuin modulators” (GLAXOSMITHKLINE LLC, priority 2009, dated 2017).
